# Experimental data from patent publication US20230167467A1, “METHODS AND COMPOSITIONS FOR THE PRODUCTION OF ISOBUTENE” (University of Alaska Anchorage, priority 2020, published 2023).
# Test system: Engineered strains of E. coli
# Type: cell-based
# Details: for change in expression of gene adiA / change in expression of gene adiC / change in expression of gene adiY / change in expression of gene bhsA / change in expression of gene bssR / change in expression of gene bssS / change in expression of gene clpA / change in expression of gene clpB / change in expression of gene clpP / change in expression of gene coaA / change in expression of gene coaD / change in expression of gene cspA / change in expression of gene cspB / change in expression of gene cspC / change in expression of gene cspD / change in expression of gene cspE / change in expression of gene cspF / change in expression of gene dhaK / change in expression of gene dhaL / change in expression of gene dnaJ / change in expression of gene dnaK / change in expression of gene fabA / change in expression of gene fabB / change in expression of gene fabD / change in expression of gene flgA / change in expression of gene flgB / change in expression of gene flgC / change in expression of gene flgD / change in expression of gene flgE / change in expression of gene flgF / change in expression of gene flgG / change in expression of gene flgH / change in expression of gene gabD / change in expression of gene gabP / change in expression of gene gabT / change in expression of gene gadA / change in expression of gene gadB / change in expression of gene gadC / change in expression of gene gadE / change in expression of gene gadW / change in expression of gene gadX / change in expression of gene gadY / change in expression of gene glpA / change in expression of gene glpB / change in expression of gene glpC / change in expression of gene groL / change in expression of gene groS / change in expression of gene hchA / change in expression of gene hslJ / change in expression of gene hslO / change in expression of gene hslR / change in expression of gene hslU / change in expression of gene hslV / change in expression of gene ibpA / change in expression of gene ibpB / change in expression of gene lhgO / change in expression of gene lipA / change in expression of gene lipB / change in expression of gene narG / change in expression of gene narH / change in expression of gene narI / change in expression of gene narJ / change in expression of gene narK / change in expression of gene potA / change in expression of gene potB / change in expression of gene potC / change in expression of gene pspA / change in expression of gene pspB / change in expression of gene rpoA / change in expression of gene rpoB / change in expression of gene rpoC / change in expression of gene rpoD / change in expression of gene rpoE / change in expression of gene rpoH / change in expression of gene rpoN / change in expression of gene rpoS / change in expression of gene rpoZ / change in expression of gene spy / change in expression of gene tatA / change in expression of gene tatB / change in expression of gene tatC / change in expression of gene tatD / change in expression of gene tatE: after solvent exposure, vs positive control; for number of genes with significant changes in expression: vs control, Bon Ferroni corrected p-value<0.05
structure (smiles),measurement,value
CC(C)=O [acetone],expression of accBC (fatty acid biosynthesis),downregulated
same,expression of bssRS (decreasing biofilm material),upregulated
same,expression of chaperone genes groLS and dnaJK,increased expression
same,expression of gad genes,increase in expression
same,expression of gadABCE (acid resistance via GABA production),upregulated
same,expression of glpABC (glycerol to glycerone phosphate),increased in expression
same,expression of heat shock proteins and chaperones hslJORUV,upregulation
same,expression of ibpAB and clpAB (protein protection and repair),increased
same,expression of marA,upregulated
same,change in expression of gene adiA,1.50 ± 0.91
same,change in expression of gene adiC,−0.54 ± 1.10
same,change in expression of gene adiY,−0.57 ± 0.71
same,change in expression of gene bhsA,4.49 ± 0.62
same,change in expression of gene bssR,2.34 ± .46
same,change in expression of gene bssS,5.02 ± .88
same,change in expression of gene clpA,1.92 ± .68
same,change in expression of gene clpB,4.51 ± .69
same,change in expression of gene clpP,1.39 ± 0.63
same,change in expression of gene coaA,−3.10 ± 1.0
same,change in expression of gene coaD,0.05 ± 1.01
same,change in expression of gene cspA,−4.58 ± 0.64
same,change in expression of gene cspB,−5.17 ± 1.49
same,change in expression of gene cspC,−0.95 ± .98
same,change in expression of gene cspD,2.52 ± 0.63
same,change in expression of gene cspE,−2.45 ± 0.72
same,change in expression of gene cspF,−5.06 ± 1.34
same,change in expression of gene dhaK,0.26 ± 0.67
same,change in expression of gene dhaL,−0.41 ± 0.74
same,change in expression of gene dnaJ,2.96 ± 0.74
same,change in expression of gene dnaK,4.58 ± 0.66
same,change in expression of gene fabA,−0.85 ± 0.84
same,change in expression of gene fabB,1.61 ± 0.72
same,change in expression of gene fabD,−1.74 ± 0.59
same,change in expression of gene flgA,−2.14 ± 1.68
same,change in expression of gene flgB,−4.07 ± 1.67
same,change in expression of gene flgC,−4.24 ± 2.06
same,change in expression of gene flgD,−4.39 ± 2
same,change in expression of gene flgE,−4.02 ± 1.30
same,change in expression of gene flgF,−2.98 ± 1.7
same,change in expression of gene flgG,−4.98 ± 1.68
same,change in expression of gene flgH,−2.24 ± 1.82
same,change in expression of gene gabD,0.73 ± 1.41
same,change in expression of gene gabP,−1.06 ± 1.42
same,change in expression of gene gabT,0.34 ± 1.38
same,change in expression of gene gadA,4.57 ± 0.70
same,change in expression of gene gadB,4.53 ± 0.82
same,change in expression of gene gadC,4.83 ± 0.82
same,change in expression of gene gadE,2.23 ± .62
same,change in expression of gene gadW,1.58 ± 1
same,change in expression of gene gadX,1.71 ± 0.59
same,change in expression of gene gadY,0.05 ± 0.83
same,change in expression of gene glpA,4.83 ± 0.91
same,change in expression of gene glpB,2.81 ± 0.69
same,change in expression of gene glpC,3.12 ± 0.87
same,change in expression of gene groL,4.18 ± 0.58
same,change in expression of gene groS,4.58 ± 0.51
same,change in expression of gene hchA,4.64 ± 0.64
same,change in expression of gene hslJ,−0.10 ± 0.75
same,change in expression of gene hslO,2.78 ± 0.69
same,change in expression of gene hslR,3.01 ± 0.70
same,change in expression of gene hslU,2.69 ± 0.59
same,change in expression of gene hslV,2.24 ± 0.67
same,change in expression of gene ibpA,5.64 ± 1.22
same,change in expression of gene ibpB,6.70 ± 1.51
same,change in expression of gene lhgO,1.82 ± 1.73
same,change in expression of gene lipA,−1.03 ± 0.69
same,change in expression of gene lipB,−1.11 ± 0.75
same,change in expression of gene narG,2.69 ± 0.70
same,change in expression of gene narH,2.94 ± 0.66
same,change in expression of gene narI,1.48 ± 1.02
same,change in expression of gene narJ,1.75 ± 0.74
same,change in expression of gene narK,0.21 ± 0.96
same,change in expression of gene potA,−3.62 ± 0.91
same,change in expression of gene potB,−2.22 ± 1.43
same,change in expression of gene potC,−3.06 ± 1.45
same,change in expression of gene pspA,2.10 ± 0.60
same,change in expression of gene pspB,0.76 ± 0.80
same,change in expression of gene rpoA,−0.20 ± 0.47
same,change in expression of gene rpoB,−0.26 ± 0.43
same,change in expression of gene rpoC,−0.29 ± 0.43
same,change in expression of gene rpoD,1.41 ± 0.72
same,change in expression of gene rpoE,−0.26 ± 0.66
same,change in expression of gene rpoH,1.72 ± 0.55
same,change in expression of gene rpoN,−1.18 ± 0.54
same,change in expression of gene rpoS,1.63 ± 0.51
same,change in expression of gene rpoZ,−1.83 ± 0.60
same,change in expression of gene spy,1.90 ± 0.95
same,change in expression of gene tatA,−1.15 ± 0.57
same,change in expression of gene tatB,−1.35 ± 0.65
same,change in expression of gene tatC,−2.55 ± 1.23
same,change in expression of gene tatD,−1.90 ± 1.23
same,change in expression of gene tatE,0.41 ± 0.70
same,number of genes with significant changes in expression,399 genes
C1=CCCCC1 [cyclohexene],"expression of acid resistance genes (gad, adi families)",downregulated
same,"expression of chaperone proteins groLS, spy, and dnaJK",highly upregulated
same,expression of dihydroxyacetone kinase genes dhaKLM,upregulated
same,expression of galactitol metabolism genes gatABD,upregulated
same,expression of heat shock proteins and chaperones hslJORUV,increased
same,expression of ibpAB and clpAB (protein protection and repair),increased
same,expression of marABC (multiple antibiotic resistance),upregulated
same,expression of nitrate reductase genes narGHJKP,upregulated
same,expression of phage shock genes pspABCDE,highly upregulated
same,change in expression of gene adiA,−1.87 ± 0.86
same,change in expression of gene adiC,−1.64 ± 1.02
same,change in expression of gene adiY,−2.84 ± 0.66
same,change in expression of gene bhsA,4.18 ± 0.60
same,change in expression of gene bssR,2.27 ± 0.44
same,change in expression of gene bssS,6.69 ± 0.84
same,change in expression of gene clpA,4.12 ± 0.63
same,change in expression of gene clpB,6.17 ± 0.69
same,change in expression of gene clpP,2.72 ± .59
same,change in expression of gene coaA,−1.36 ± 0.88
same,change in expression of gene coaD,1.34 ± 0.90
same,change in expression of gene cspA,−6.07 ± 0.58
same,change in expression of gene cspB,−4.10 ± 1.31
same,change in expression of gene cspC,−3.65 ± 0.94
same,change in expression of gene cspD,2.88 ± 0.57
same,change in expression of gene cspE,−0.06 ± 0.63
same,change in expression of gene cspF,−2.37 ± 1.04
same,change in expression of gene dhaK,3.72 ± 0.59
same,change in expression of gene dhaL,2.40 ± 0.62
same,change in expression of gene dnaJ,6.64 ± 0.69
same,change in expression of gene dnaK,5.96 ± 0.66
same,change in expression of gene fabA,−1.13 ± 0.76
same,change in expression of gene fabB,1.01 ± 0.66
same,change in expression of gene fabD,−1.64 ± 0.53
same,change in expression of gene flgA,−0.73 ± 1.53
same,change in expression of gene flgB,−3.31 ± 1.51
same,change in expression of gene flgC,−4.46 ± 1.94
same,change in expression of gene flgD,−3.72 ± 1.87
same,change in expression of gene flgE,−2.82 ± 1.18
same,change in expression of gene flgF,−2.88 ± 1.58
same,change in expression of gene flgG,−2.77 ± 1.48
same,change in expression of gene flgH,−2.14 ± 1.71
same,change in expression of gene gabD,0.11 ± 1.32
same,change in expression of gene gabP,1.19 ± 1.28
same,change in expression of gene gabT,0.31 ± 1.28
same,change in expression of gene gadA,−0.52 ± 0.68
same,change in expression of gene gadB,0.17 ± 0.80
same,change in expression of gene gadC,1.28 ± 0.80
same,change in expression of gene gadE,−3.51 ± 0.61
same,change in expression of gene gadW,−2.17 ± 0.95
same,change in expression of gene gadX,−3.69 ± 0.57
same,change in expression of gene gadY,−4.01 ± 0.80
same,change in expression of gene glpA,7.06 ± 0.87
same,change in expression of gene glpB,4.64 ± 0.63
same,change in expression of gene glpC,5.02 ± 0.80
same,change in expression of gene groL,4.57 ± 0.57
same,change in expression of gene groS,4.63 ± 0.50
same,change in expression of gene hchA,2.06 ± 0.60
same,change in expression of gene hslJ,1.41 ± 0.66
same,change in expression of gene hslO,4.56 ± 0.64
same,change in expression of gene hslR,4.80 ± 0.65
same,change in expression of gene hslU,4.95 ± 0.55
same,change in expression of gene hslV,4.81 ± 0.61
same,change in expression of gene ibpA,9.90 ± 1.21
same,change in expression of gene ibpB,10.95 ± 1.50
same,change in expression of gene lhgO,1.38 ± 1.64
same,change in expression of gene lipA,0.42 ± 0.73
same,change in expression of gene lipB,0.61 ± 1.03
same,change in expression of gene narG,4.96 ± 0.65
same,change in expression of gene narH,4.45 ± 0.61
same,change in expression of gene narI,3.11 ± 0.92
same,change in expression of gene narJ,4.11 ± 0.68
same,change in expression of gene narK,3.31 ± 0.84
same,change in expression of gene potA,−2.79 ± 0.81
same,change in expression of gene potB,−1.05 ± 1.29
same,change in expression of gene potC,−0.55 ± 1.19
same,change in expression of gene pspA,10.50 ± 0.55
same,change in expression of gene pspB,9.33 ± 0.68
same,change in expression of gene rpoA,0.17 ± 0.44
same,change in expression of gene rpoB,0.79 ± 0.40
same,change in expression of gene rpoC,1.15 ± 0.39
same,change in expression of gene rpoD,4.75 ± 0.70
same,change in expression of gene rpoE,1.44 ± 0.62
same,change in expression of gene rpoH,1.79 ± 0.52
same,change in expression of gene rpoN,−1.54 ± 0.49
same,change in expression of gene rpoS,0.22 ± 0.47
same,change in expression of gene rpoZ,−0.02 ± 0.53
same,change in expression of gene spy,3.95 ± 0.87
same,change in expression of gene tatA,−1.95 ± 0.52
same,change in expression of gene tatB,−1.59 ± 0.59
same,change in expression of gene tatC,−1.25 ± 1.09
same,change in expression of gene tatD,−1.56 ± 1.13
same,change in expression of gene tatE,−0.97 ± 0.64
same,number of genes with significant changes in expression,530 genes
